# Source: patent US20030026797A1, “Antifungal compositions” (priority 1996, published 2003)
# Key:
# [1] = system: Rhizoctonia; experiment: Soil treatment against Rhizoctonia infection of flower bulbs (visual inspection after 4 weeks); type: in vivo; conditions: 18° C.
# Method: Bulbs were planted in pots at standard soil at a depth of 20 cm. Oat borne sclerotia of Rhizoctonia were mixed through the soil to infect the bulbs. Temperature was maintained at 18° C. during the experiment. Experiments were replicated 5 fold. Natamycin and fungal cell wall degrading enzymes were mixed as powders through the soil prior to infection with Rhizoctonia. Natamycin was tested at final concentrations of 1000, 500 and 100 mg/kg. Chitinase and β-1,3-glucanase was mixed through the soil to a final activity of 3600 and 1000 units per kg of soil. After 4 weeks bulbs were monitored for fungal infection by means of visual inspection.
# [2] = system: conidia of Fusarium oxysporum; experiment: Survival of hot-water treated conidia of Fusarium oxysporum (plating on PDA-V agar); type: cell-based; conditions: 2 hrs at 43.5° C., 25,000 conidia per ml, no enzymes
# Method: Viability of conidia of Fusarium oxysporum was measured at the start and at the end of the hot-water treatment. (2 hrs at 43.5° C.).
# Five samples of 1 ml were mixed each with 20 ml of PDA containing 50 microgram/ml vendarcin (PDA-V) and poured into petri dishes of 14 cm diameter. Colonies were counted after 2 and 5 days at 25° C.
# In the presence of natamycin and fungal cell wall degrading enzymes, 2 samples of 25 ml were taken from the bath at the beginning and the end of the treatment. These samples were centrifuged at 3,000*g for 15 min. The pellet containing the conidia was washed several times with sterile water to remove the antifungal agents, followed by centrifugation and dilution to allow for plating on PDA-V as described above. […]
# Chitinase and β-1,3-glucanase respectively were added to the hot-water bath to a final activity of 36,000 and 10,000 units per liter. Units are as defined in Example 1.
structure (smiles),measurement,setting,value
"C[C@@H]1C/C=C/C=C/C=C/C=C/[C@H](O[C@@H]2O[C@H](C)[C@@H](O)[C@H](N)[C@@H]2O)C[C@@H]2O[C@](O)(C[C@@H](O)C[C@H]3O[C@@H]3/C=C/C(=O)O1)C[C@H](O)[C@H]2C(=O)O [Natamycin, natamycin]",Percentage of bulbs showing fungal infection,[1]; natamycin 100 mg/kg soil,50%
same,Percentage of bulbs showing fungal infection,[1]; natamycin 500 mg/kg soil,42%
same,Percentage of bulbs showing fungal infection,[1]; natamycin 1000 mg/kg soil,19%
same,Surviving conidia per ml,[2]; natamycin 100 mg/L in hot-water bath,70 per ml
same,Surviving conidia per ml,[2]; natamycin 200 mg/L in hot-water bath,50 per ml
same,Surviving conidia per ml,[2]; natamycin 300 mg/L in hot-water bath,<1 per ml
